Source: patent publication US20250197407A1 (Jazz Pharmaceuticals Ireland Limited, priority 2022, published 2025)

Biological target: SOS1/KRAS WT (Homo sapiens (Human), UniProt Q07889)
Assay: SOS1/KRAS WT HTRF binding assay (FRET-based protein-protein interaction)
Conditions: inhibition of His6-SOS1 (aa564-1049, 40 nM) binding to GST-KRAS-WT (aa1-188, 40 nM); at least two independent replicates; read-out: SOS1/KRAS WT HTRF Binding assay pIC50 (converted)
Excerpt: The capacity of compounds to inhibit SOS1 binding to KRAS-WT (wild-type) was quantified using a FRET-based protein-protein interaction assay. The assay is based on the transfer of energy between two fluorophores, a donor and an acceptor, when in close proximity. In this instance, the donor is a Europium-conjugated α-GST antibody that binds to GST-tagged KRAS-WT, and the acceptor is an XL665-conjugated α-His 6 antibody that binds to His 6-tagged SOS1. Binding of SOS1 to KRAS-WT results in an increased fluorescent signal at emission wavelength of 665 nm which can be detected on the EnVision plate reader. Compounds that inhibit binding will reduce the 665 nm signal emitted. Recombinant KRAS-WT protein (40 nM; Human KRAS, aa1-188 recombinant protein with N-terminal GST-tag) and SOS1 protein (40 nM; Human SOS1 exchange domain, aa564-1049 with N-terminal 6His-tag) were mixed together in assay buffer (5 mM HEPES pH7.3, 150 mM NaCl, 10 mM EDTA, 5 mM MgCl2, 0.05% BSA, 0.0025% NP-40, 1 mM DTT and 100 mM KF) and incubated at room temperature with a dose response of compound in a 384-well low volume white plate and a final volume of 5 ul. After a 60 minute incubation, 5 ul of 4 nM anti-GST-Eu(K) (Cisbio, France) combined with 20 nM anti-6His-XL665 (Cisbio, France), diluted in assay buffer, was added to the plate. Following a further 4 hr incubation at room temperature, time-resolved fluorescence was measured on the EnVision plate reader. DMSO (0.05%) and 10 μM reference compound were used to generate the Max and Min assay signals, respectively. Data was analysed using a four-parameter logistic model to calculate IC50 values, with at least two independent replicates performed for each compound.
Data was analyzed using a four-parameter logistic model to calculate IC50 values, with at least two independent replicates performed for each compound.

Chain of SOS1/KRAS WT (Q07889 564-1049): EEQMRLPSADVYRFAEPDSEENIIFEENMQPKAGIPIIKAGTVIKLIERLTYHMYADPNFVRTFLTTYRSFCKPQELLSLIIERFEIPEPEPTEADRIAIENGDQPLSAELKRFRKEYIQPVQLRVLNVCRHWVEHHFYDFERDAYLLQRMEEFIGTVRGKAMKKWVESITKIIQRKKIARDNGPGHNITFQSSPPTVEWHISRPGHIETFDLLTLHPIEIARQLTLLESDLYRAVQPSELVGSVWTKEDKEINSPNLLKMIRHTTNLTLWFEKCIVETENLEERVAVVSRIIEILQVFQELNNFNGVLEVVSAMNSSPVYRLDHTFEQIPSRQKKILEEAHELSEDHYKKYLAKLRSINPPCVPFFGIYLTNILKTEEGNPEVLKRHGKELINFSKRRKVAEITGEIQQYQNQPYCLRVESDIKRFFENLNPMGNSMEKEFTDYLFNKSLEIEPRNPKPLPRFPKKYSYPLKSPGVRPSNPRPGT

Row | IC50 [nM] | Compound
1 | 10.2 | Cc1nnc(N[C@H](C)c2cccc(C(F)(F)F)c2)c2cc3c(cc12)n(C)c(=O)n3C(C)C#N (stereo partly drawn) [Compound 149, 2-[1,8-dimethyl-2-oxo-5-[[(1R)-1-[3-(trifluoromethyl)phenyl]ethyl]amino]imidazo[4,5-g]phthalazin-3-yl]propanenitrile]
2 | 12.3 | COCCn1c(=O)n(C)c2cc3c(C)nnc(N[C@H](C)c4cccc(C(F)F)c4F)c3cc21 [Compound 28, 3-(2-methoxyethyl)-1,8-dimethyl-5-[[(1R)-1-[3-(difluoromethyl)-2-fluoro-phenyl]ethyl]amino]imidazo[4,5-g]phthalazin-2-one]
3 | 6.31 | Cc1nnc(N[C@H](C)c2cccc(C(F)(F)C(C)(C)O)c2F)c2cc3c(cc12)C1(CCOCC1)C(=O)N3C1CC1 [Compound 121, 1-cyclopropyl-5-methyl-8-[[(1R)-1-[3-(1,1-difluoro-2-hydroxy-2-methyl-propyl)-2-fluoro-phenyl]ethyl]amino]spiro[pyrrolo [2,3-g]phthalazine-3,4′-tetrahydropyran]-2-one]
4 | 23.4 | CCC1(OC)C(=O)N(C)c2cc3c(C)nnc(N[C@H](C)c4cccc(C(F)(F)C(C)(C)O)c4C)c3cc21 (stereo partly drawn) [Compound 191, 5-[[(1R)-1-[3-(1,1-difluoro-2-hydroxy-2-methyl-propyl)-2-methyl-phenyl]ethyl]amino]-3-ethyl-3-methoxy-1,8-dimethyl-pyrrolo[2,3-g]phthalazin-2-one]
5 | 11.2 | Cc1c(C#N)cccc1[C@@H](C)Nc1nnc(C)c2cc3c(cc12)n(C(C)(C)C)c(=O)n3C [Compound 49, 2-methyl-3-[(1R)-1-[(3-tert-butyl-1,8-dimethyl-2-oxo-imidazo[4,5-g]phthalazin-5-yl)amino]ethyl]benzonitrile]
6 | 8.13 | Cc1nnc(N[C@H](C)c2cccc(C(F)(F)C(C)(C)O)c2)c2cc3c(cc12)n(C)c(=O)n3C [Compound 64, 1,3,8-trimethyl-5-[[(1R)-1-[3-(1,1-difluoro-2-hydroxy-2-methyl-propyl)phenyl]ethyl]amino]imidazo [4,5-g]phthalazin-2-one]
7 | 9.12 | CCN1C(=O)C(C)(OC)c2cc3c(C)nnc(N[C@H](C)c4cccc(C(F)(F)C(C)(C)O)c4F)c3cc21 (stereo partly drawn) [Compound 170, 1-ethyl-3-methoxy-3,5-dimethyl-8-[[(1R)-1-[3-(1,1-difluoro-2-hydroxy-2-methyl-propyl)-2-fluoro-phenyl]ethyl]amino]pyrrolo[2,3-g]phthalazin-2-one]
8 | 9.55 | Cc1c([C@@H](C)Nc2nnc(C)c3cc4c(cc23)n(C2CC2)c(=O)n4C)cccc1C(F)(F)CO [Compound 68, 3-cyclopropyl-1,8-dimethyl-5-[[(1R)-1-[3-(1,1-difluoro-2-hydroxy-ethyl)-2-methyl-phenyl]ethyl]amino]imidazo[4,5-g]phthalazin-2-one]
9 | 12.3 | Cc1nnc(N[C@H](C)c2cccc(C(F)F)c2F)c2cc3c(cc12)n(C)c(=O)n3[C@H]1CCOC1 [Compound 146, 5-[[(1R)-1-[3-(difluoromethyl)-2-fluoro-phenyl]ethyl]amino]-1,8-dimethyl-3-[(3S)-tetrahydrofuran-3-yl]imidazo[4,5-g]phthalazin-2-one]
10 | 8.71 | Cc1nnc(N[C@H](C)c2cccc(C(F)(F)CO)c2F)c2cc3c(cc12)C(C)(C)C(=O)N3C1CC1 [Compound 123, 1-cyclopropyl-3,3,5-trimethyl-8-[[(1R)-1-[3-(1,1-difluoro-2-hydroxy-ethyl)-2-fluoro-phenyl]ethyl]amino]pyrrolo[2,3-g]phthalazin-2-one]
11 | 8.91 | Cc1c(-c2ccnn2C)cccc1[C@@H](C)Nc1nnc(C)c2cc3c(cc12)n(C)c(=O)n3C [Compound 150, 1,3,8-trimethyl-5-[[(1R)-1-[2-methyl-3-(2-methylpyrazol-3-yl)phenyl]ethyl]amino]imidazo[4,5-g]phthalazin-2-one]
12 | 12 | Cc1nnc(N[C@H](C)c2cccc(C(F)(F)C(C)(C)O)c2F)c2cc3c(cc12)N(C)C(=O)C3(C)C [Compound 98, 1,3,3,8-tetramethyl-5-[[(1R)-1-[3-(1,1-difluoro-2-hydroxy-2-methyl-propyl)-2-fluoro-phenyl]ethyl]amino]pyrrolo[3,2-g]phthalazin-2-one]
13 | 7.41 | COC1(C)C(=O)N(C)c2cc3c(N[C@H](C)c4cccc(C(F)(F)CO)c4F)nnc(C)c3cc21 (stereo partly drawn) [Compound 93, 3-methoxy-1,3,5-trimethyl-8-[[(1R)-1-[3-(1,1-difluoro-2-hydroxy-ethyl)-2-fluoro-phenyl]ethyl]amino]pyrrolo[2,3-g]phthalazin-2-one]
14 | 10.7 | Cc1nnc(N[C@H](C)c2cccc(C(F)F)c2F)c2cc3c(cc12)C(C)(C)C(=O)N3C1CC1 [Compound 62, 1-cyclopropyl-3,3,5-trimethyl-8-[[(1R)-1-[3-(difluoromethyl)-2-fluoro-phenyl]ethyl]amino]pyrrolo[2,3-g]phthalazin-2-one]
15 | 16.2 | CCC1(OC)C(=O)N(C)c2cc3c(C)nnc(N[C@H](C)c4cccc(C(F)(F)C(C)(C)O)c4)c3cc21 (stereo partly drawn) [Compound 192, 5-[[(1R)-1-[3-(1,1-difluoro-2-hydroxy-2-methyl-propyl)phenyl]ethyl]amino]-3-ethyl-3-methoxy-1,8-dimethyl-pyrrolo[2,3-g]phthalazin-2-one]
16 | 57.5 | COc1c([C@@H](C)Nc2nnc(C)c3cc4c(cc23)n(C)c(=O)n4C)cccc1C(F)(F)F [Compound 55, 5-[[(1R)-1-[2-methoxy-3-(trifluoromethyl)phenyl]ethyl]amino]-1,3,8-trimethyl-imidazo[4,5-g]phthalazin-2-one]
17 | 10.7 | CCOC1(C)C(=O)N(C2CC2)c2cc3c(N[C@H](C)c4cccc(C(F)(F)C(C)(C)O)c4F)nnc(C)c3cc21 (stereo partly drawn) [Compound 163, 1-cyclopropyl-3-ethoxy-3,5-dimethyl-8-[[(1R)-1-[3-(1,1-difluoro-2-hydroxy-2-methyl-propyl)-2-fluoro-phenyl]ethyl]amino]pyrrolo[2,3-g]phthalazin-2-one]
18 | 8.32 | Cc1c([C@@H](C)Nc2nnc(C)c3cc4c(cc23)N(C)C(=O)C42CCCC2)cccc1C(F)(F)C(C)(C)O [Compound 186, 1′,5′-dimethyl-8′-[[(1R)-1-[3-(1,1-difluoro-2-hydroxy-2-methyl-propyl)-2-methyl-phenyl]ethyl]amino]spiro [cyclopentane-1,3′-pyrrolo[2,3-g]phthalazine]-2′-one]
19 | 9.77 | Cc1nnc(N[C@H](C)c2cccc(C(F)(F)C(C)(C)O)c2F)c2cc3c(cc12)n(C)c(=O)n3C1CC1 [Compound 33, 3-cyclopropyl-1,8-dimethyl-5-[[(1R)-1-[3-(1,1-difluoro-2-hydroxy-2-methyl-propyl)-2-fluoro-phenyl]ethyl]amino]imidazo[4,5-g]phthalazin-2-one]
20 | 10.7 | COCCn1c(=O)n(C)c2cc3c(C)nnc(N[C@H](C)c4cccc(C(F)(F)F)c4F)c3cc21 [Compound 35, 3-(2-methoxyethyl)-1,8-dimethyl-5-[[(1R)-1-[2-fluoro-3-(trifluoromethyl)phenyl]ethyl]amino] imidazo[4,5-g]phthalazin-2-one]
21 | 8.13 | Cc1nnc(N[C@H](C)c2cccc(C(F)(F)F)c2F)c2cc3c(cc12)n(C)c(=O)n3C1CC1 [Compound 52, 3-cyclopropyl-1,8-dimethyl-5-[[(1R)-1-[2-fluoro-3-(trifluoromethyl)phenyl]ethyl]amino] imidazo[4,5-g]phthalazin-2-one]
22 | 9.12 | Cc1c([C@@H](C)Nc2nnc(C)c3cc4c(cc23)N(C)C(=O)C4(C)C)cccc1C(F)(F)CO [Compound 69, 1,3,3,5-tetramethyl-8-[[(1R)-1-[3-(1,1-difluoro-2-hydroxy-ethyl)-2-methyl-phenyl]ethyl]amino]pyrrolo[2,3-g]phthalazin-2-one]
23 | 12.6 | Cc1cc([C@@H](C)Nc2nnc(C)c3cc4c(cc23)n(C)c(=O)n4C)c(C)c(C(F)(F)CO)c1 [Compound 212, 5-[[(1R)-1-[3-(1,1-difluoro-2-hydroxy-ethyl)-2,5-dimethyl-phenyl]ethyl]amino]-1,3,8-trimethyl-imidazo[4,5-g]phthalazin-2-one]
24 | 7.94 | CCOC1(C)C(=O)N(C)c2cc3c(N[C@H](C)c4cccc(C(F)(F)C(C)(C)O)c4F)nnc(C)c3cc21 (stereo partly drawn) [Compound 132, 3-ethoxy-1,3,5-trimethyl-8-[[(1R)-1-[3-(1,1-difluoro-2-hydroxy-2-methyl-propyl)-2-fluoro-phenyl]ethyl]amino]pyrrolo[2,3-g]phthalazin-2-one]
25 | 7.41 | Cc1nnc(N[C@H](C)c2cccc(C(F)(F)C(C)(C)O)c2)c2cc3c(cc12)n(C)c(=O)n3C1CC1 [Compound 67, 3-cyclopropyl-1,8-dimethyl-5-[[(1R)-1-[3-(1,1-difluoro-2-hydroxy-2-methyl-propyl)phenyl]ethyl]amino]imidazo [4,5-g]phthalazin-2-one]
